Experimental data reported in paper PMC6107127, “Characteristics of the mitochondrial and cellular uptake of MPP^+, as probed by the fluorescent mimic, 4'I-MPP^+” (PLoS ONE, 2018).
pIC50: −log10 of the molar value.

Columns and labels:
[1] = Relative HPLC elution times and hydrophobicities; type: physicochemical
[2] = test system: isolated intact MN9D mitochondria; test: Effects of Ca2+ and inhibitors on MN9D mitochondrial uptake of 4'I-MPP+; design: species or system mouse
Procedure: Intact MN9D cell mitochondria were incubated with 200 μM 4'I-MPP^+ for 45 min at 37 °C in 0, 500 or 1000 nM Ca^2+ containing KCl buffer. When mNCX inhibitors (KBR7943, 2APB and CGP37157) were used, mitochondrial suspensions were initially incubated with 10, 25 or 50 μM inhibitor in KCl buffer for 10 min at 37 °C and then with 200 μM 4'I- MPP^+ for 45 min at 37 °C. After the incubations, samples were centrifuged at 7,000 x g at 4 °C for 10 min and the mitochondrial pellets were treated with 75 μL of 0.1 M HClO4. […] To visualize the effect of CGP37157 on the mitochondrial uptake of 4'I-MPP^+ in live cells, HepG2 cells grown in glass-bottomed plates were incubated with 50 μM CGP37157 for 30 min initially and then with 100 μM 4'I-MPP^+ and 200 nM MitoTracker Green FM in KRB-HEPES for 1 h at 37 °C. After incubation cells were washed and reconstituted with KRB-HEPES, pH 7.4 and 4'I-MPP^+ and MitoTracker Green FM fluorescence images of cells were recorded as detailed above. Controls were treated under the same experimental conditions, except that CGP37157 was omitted from the initial incubation.
S4 Fig. Effects of Benzamil, Verapamil, FFA, and ruthenium red on the MN9D mitochondrial uptake of 4'I-MPP+. MN9D mitochondrial suspensions were initially incubated with a 50 μM concentration of the desired agent (10 μM Ruthenium red) in KCl buffer for 10 min at 37 °C and then incubated with 200 μM 4'I-MPP+ for 45 min at 37 °C. After the incubations, the […] 4'I-MPP+ contents were quantified by RP-HPLC-UV as described in Material and methods. The data are represented as mean ± S.D (n=3).
(also on this page, place not known: contol 10uM Ru red BenzamilVerapamil FFA 4I' MPP+ uptake (nmoles/mg) 0.0 0.1 0.2 0.3 0.4 0.5)
(1 picture or pasted object on this page, not shown here)

HepG2 cells [3] = test: Effect of CGP37157 and KBR7943 on 4'I-MPP+-mediated mitochondrial membrane depolarization (TMRM); type: cell-based, human; settings: 50 μM pre-treatment 30 min, 100 μM 4'I-MPP+
Procedure: HepG2 cells grown in glass-bottomed plates for two days were treated with 50 μM CGP37157 or KBR7943 in KRB-HEPES for 30 min followed by 50 nM TMRM in KRB-HEPES for 45 min. Then plates were mounted on the stage of the microscope and mitochondrial membrane depolarization upon the treatment with 100 μM 4'I-MPP^+ was measured as a function of time as detailed above. The effect of CGP37157 on the 4'I-MPP^+ mediated mitochondrial membrane depolarization at longer time periods was monitored by observing the reduction of TMRM fluorescence from 0 to 4 h incubations in the presence or absence of CGP37157. HepG2 cells were incubated with or without 10 μM CGP37157 followed by 50 nM TMRM, and finally with 4'I-MPP^+ (100 μM, 0 or 4 h) and the intracellular TMRM fluorescence was recorded. Controls were carried out using an identical protocol except that either CGP37157 or 4'I-MPP^+ were omitted from the incubation media.

[4] = test system: rat brain mitochondrial complex-I (NADH: ubiquinone oxidoreductase); test: Ubiquinone dependent NADH oxidation (complex-I inhibition); type: biochemical
Procedure: Isolated rat brain mitochondria were lysed by freeze-thawing in hypotonic media containing 25 mM K3PO4 and 5 mM MgCl2, pH 7.2 [22]. The complex-I (i.e. NADH: ubiquinone oxidoreductase) activity of mitochondrial membrane fragments were determined according to the procedure of Birch-Machin and Turnbull. Briefly, mitochondrial membranes (50 μg protein) were incubated with 130 μM NADH (final concentration) and Antimycine A (2 μg/mL) in a 1.0 mL assay solution containing 25 mM K3PO4, 5 mM MgCl2, 2 mM KCN, 2.5 mg/mL bovine serum albumin, pH 7.2, for 2 min at 37 °C with or without rotenone, MPP^+ or 4'I-MPP^+ (for further details see the corresponding figure legends). The complex-I mediated ubiquinone dependent NADH oxidation was initiated by adding ubiquinone-1 to a final concentration of 65 μM and the initial rates of the reactions were monitored by following the decrease in absorbance at 340 nm with respect to 425 nm reference wavelength for 5 min.

MN9D cells [5] = test: Intracellular ATP levels; type: cell-based, mouse; settings: 100 μM, 6 h at 37 °C
Procedure: (§1) Cells grown in 12-well plates were treated with 100 μM MPP^+ or 4'I-MPP^+ in KRB-HEPES for 6 h at 37 °C. After the treatments, cells were suspended in 1 mL of ice-cold KRB-HEPES and 50 μL samples were withdrawn for protein quantification. The remaining cell suspensions were centrifuged for 3 min at 3,500 x g at 4 °C and the cell pellets were treated with 1 mL of lysis buffer (0.1 M Tris, 1% Triton X-100, pH 7.5) for 2 min and centrifuged at 3,500 x g for 3 min to remove the cell debris. The ATP contents of the supernatants were measured using a fluorometric ATP assay kit (BioVision, Milpitas CA, USA) following the manufacture’s guidelines. All ATP levels were normalized to the protein content of each sample.

HepG2 cells [6] = test: Cellular uptake of MPP+ and 4'I-MPP+ (HPLC-UV / fluorescence); type: cell-based, human; settings: 100 μM toxin, 60 min
Procedure: (§2) Cells were seeded into 12-well plates at 0.25 x 10^6 cells/well and grown 2–3 days to about 70–80% confluency. The media was removed and a solution containing 100 μM MPP^+ or 4'I-MPP^+ in warm KRB-HEPES (or without Ca^2+ and with 1.4 mM EGTA) was added to each well and incubated at 37 °C for the desired period of time (see Figure legends for further details). After the incubations, the media were removed and cells were washed with ice-cold KRB-HEPES. Washed cells were suspended in 1.0 mL of ice-cold KRB-HEPES and 50 μL aliquots were withdrawn for protein determination. The remaining cell suspensions were centrifuged at 5000 x g at 4 °C for 5 min and the cell pellets were treated with 75 μL of 0.1 M HClO4. The coagulated proteins were pelleted by centrifugation at 13,200 x g at 4 °C for 8 min and the MPP^+ or 4'I-MPP^+ contents of the supernatants were determined by C18-reversed-phase HPLC-UV (HPLC-UV) as previously described using standard curves constructed from authentic standards. The standard curves for HPLC-UV quantifications were constructed using authentic samples of MPP^+ and 4'I-MPP^+ under the same HPLC-UV separation conditions (S1 Fig).
(§3) To quantify 4'I-MPP^+ uptake by fluorescence, MN9D or HepG2 cells grown in glass bottomed plates, washed, and reconstituted with KRB-HEPES (1.0 mL), pH 7.4, and mounted on the stage of a Nikon ECLIPSE Ti-S inverted fluorescence microscope. […]

HepG2 cells [7] = test: MTT cell viability assay; type: cell-based, human; settings: MPP+ at 0–1000 μM, 4'I-MPP+ at 0–200 μM; 16 h
Procedure: (§4) Cell viability was determined by the MTT [3-(4,5-dimethylthiazol-2-yl)-2,5-diphenyltetrazolium bromide)] assay. Briefly, cells were seeded on 96-well plates and allowed to grow to about 70–80% confluence. Prior to the experiment, culture media was replaced with KRB-HCO3^- containing desired concentrations of MPP^+ or 4'I-MPP^+ and incubated for 16 h at 37 °C. After the incubation, 10 μL of 5 mg/mL MTT solution was added to each well and incubated for 2 h at 37 °C. The resulting formazan was solubilized by the addition of 210 μL detergent solution [50% DMF/H2O (v/v), 20% SDS (w/v)] followed by incubation at 37 °C for 12 h. The cell viabilities were determined by quantifying solubilized formazan by measuring the difference in the absorbance at 570 nm and 650 nm. Results were expressed as % viability of MPP^+ or 4'I-MPP^+ treated cells with respect to control cells, which were treated under the same conditions except in the absence of the MPP^+ or 4'I-MPP^+.

MN9D cells [8] = test: Cellular uptake of MPP+ and 4'I-MPP+ (HPLC-UV / fluorescence); type: cell-based, mouse; settings: 100 μM toxin, 60 min, 37 °C, KRB-HEPES
Procedure: as §2, §3

MN9D cells [9] = test: MTT cell viability assay; type: cell-based; settings: Mus musculus, 16 h incubation
Procedure: as §4

MN9D cells [10] = test: Chromatin condensation test for apoptosis (DAPI); type: cell-based, mouse; settings: 250 μM, 12 h
Procedure: MN9D cells grown in glass-bottomed plates were treated with 250 μM MPP^+ or 4'I- MPP^+ for 12 h and then with 300 nM DAPI in KRB-HEPES for 15 min in the dark at 37 °C [24]. Then cells were rinsed and PBS was added to cover the cell layer. Increase in nuclear DAPI fluorescence (Ex/Em at 358/461 nm) due to chromatin condensation was observed using a Nikon ECLIPSE Ti-S inverted fluorescence microscope. The controls were treated similarly except that MPP^+ or 4'I-MPP^+ was omitted from the initial incubation medium.

MN9D or HepG2 cells = test: Mitochondrial membrane potential depolarization (TMRM); type: cell-based; settings: 500 μM, in about 45 min
Procedure: MN9D or HepG2 cells grown in glass-bottomed plates were treated with 50 nM TMRM (AnaSpec, Fremont CA, USA) in KRB-HEPES for 45 min in the dark. After mounting on the stage of a Nikon ECLIPSE Ti-S inverted fluorescence microscope, 15–20 ROIs with uniform fluorescence were selected and TMRM fluorescence at Ex/Em at 543/573 nm was recorded at 5 sec time intervals for 3 min. Then, MPP^+ or 4'I-MPP^+ was added to a final concentration of 500 or 100 μM, respectively and TMRM fluorescence measurements were continued for an additional 40 min for MPP^+ and 15 min for 4'I-MPP^+ at 15 sec time intervals. The background fluorescence was subtracted from the ROI fluorescence and averages of corrected data were used to estimate the magnitude of the mitochondrial membrane potential.

HepG2 cells [11] = test: Intracellular ATP levels; type: cell-based, human; settings: 100 μM, 6 h at 37 °C
Procedure: as §1

MN9D cells [12] = test: Intracellular ROS (DCFH-DA); type: cell-based, mouse; settings: 100 μM, 1 h at 37 °C
Procedure: Cells grown in 12-well plates were incubated with 10 μM DCFH-DA in KRB-HEPES for 1 h. […] After the incubations, cells were washed, harvested, solubilized with 0.1 M Tris buffer (pH 7.5) containing 1% Triton X-100, and cell debris were removed by centrifugation at 13,200 x g for 8 min at 4 °C. The content of ROS-oxidized DCFH product, 2',7'-dichlorofluorescein (DCF) in the supernatants were quantified by fluorescence (Ex/Em 488/524 nm). The data were normalized to the protein contents of individual samples. ROS productions in DCFH-DA (50 μM) loaded 250 μM 4'I-MPP^+ treated (4 h) live MN9D cells were visualized by confocal fluorescence microscopy at Ex/Em 488/524 nm using a Leica TCS SP5II microscope.

[13] = 50 μM agent, 200 μM 4'I-MPP+ (S4 Fig)
[14] = 50 μM inhibitor at 200 μM 4'I-MPP+

C[n+]1ccc(-c2ccc(Cl)cc2)cc1 [4Cl' MPP^+]
relative elution time (hydrophobicity) ([1]; Buffer:CH3CN 70:30): 8.66 | relative elution time (hydrophobicity) ([1]; Buffer:CH3CN:MeOH 60:30:10): 7.08 | relative elution time (hydrophobicity) ([1]; Buffer:CH3CN:MeOH 65:25:10): 9.17

NC(=NCc1ccccc1)NC(=O)c1nc(Cl)c(N)nc1N [benzamil]
effect on uptake of 4'I-MPP+ [2, 13]: no significant effect

N=C(N)SCCc1ccc(OCc2ccc([N+](=O)[O-])cc2)cc1 [KBR7943]
effect on 4'I-MPP+ mitochondrial membrane depolarization (HepG2 cells [3]): significantly reduced | effect on uptake of 4'I-MPP+ [2, 14]: inhibit the uptake

C[n+]1ccc(-c2ccc(F)cc2)cc1 [4F' MPP^+]
relative elution time (hydrophobicity) ([1]; Buffer:CH3CN 70:30): 6.44 | relative elution time (hydrophobicity) ([1]; Buffer:CH3CN:MeOH 60:30:10): 5.68 | relative elution time (hydrophobicity) ([1]; Buffer:CH3CN:MeOH 65:25:10): 6.60

C=C(C)[C@H]1Cc2c(ccc3c2O[C@@H]2COc4cc(OC)c(OC)cc4[C@@H]2C3=O)O1 [rotenone]
inhibition of NADH oxidation (complex-I) activity ([4]; 10 μM): about 90%

N.N.N.N.N.N.N.N.N.N.N.N.N.N.[Cl-].[Cl-].[Cl-].[Cl-].[Cl-].[Cl-].[O-2].[O-2].[Ru+3].[Ru+3].[Ru+4] [ruthenium red]
inhibition of 4'I-MPP+ uptake ([2]; 10 μM ruthenium red, 200 μM 4'I-MPP+): ~ 10%

C[n+]1ccc(-c2ccc(Br)cc2)cc1 [4Br' MPP^+]
relative elution time (hydrophobicity) ([1]; Buffer:CH3CN 70:30): 9.67 | relative elution time (hydrophobicity) ([1]; Buffer:CH3CN:MeOH 60:30:10): 7.74 | relative elution time (hydrophobicity) ([1]; Buffer:CH3CN:MeOH 65:25:10): 10.30

NCCOB(c1ccccc1)c1ccccc1 [2APB]
effect on uptake of 4'I-MPP+ [2, 14]: inhibit the uptake

COc1ccc(CCN(C)CCCC(C#N)(c2ccc(OC)c(OC)c2)C(C)C)cc1OC (centres unmarked) [verapamil]
effect on uptake of 4'I-MPP+ [2, 13]: no significant effect

C[n+]1ccc(-c2ccccc2)cc1 [MPP^+, 1-methyl-4-phenylpyridinium]
effect on intracellular ATP levels (MN9D cells [5]): deplete intracellular ATP levels | cellular uptake in 60 min (HepG2 cells [6]): about 1.2 nmoles/mg | inhibition of the complex-I activity ([4]; 200 μM): 21% | HepG2 cell toxicity (HepG2 cells [7]): resistant | cellular uptake in 1 h (MN9D cells [8]): 0.6 nmoles/mg of protein | pIC50 (MN9D cells [9]): ~3.90 | relative elution time (hydrophobicity) ([1]; Buffer:CH3CN 70:30): 5.92 | relative elution time (hydrophobicity) ([1]; Buffer:CH3CN:MeOH 60:30:10): 5.28 | relative elution time (hydrophobicity) ([1]; Buffer:CH3CN:MeOH 65:25:10): 6.02 | apoptotic cell death (chromatin condensation) (MN9D cells [10]): cause apoptotic MN9D cell death | depolarization of the mitochondrial membrane (MN9D or HepG2 cells): 20–50% | effect on intracellular ATP levels (HepG2 cells [11]): deplete intracellular ATP levels | effect on ROS production (MN9D cells [12]): increase ROS production
